Measurements taken from patent EP2641901A1, “Novel microbiocides” (Syngenta Participations AG, priority 2012, dated 2013).

How the values were obtained:
Thanatephorus cucumeris = Thanatephorus cucumeris (Rhizoctonia solani) / liquid culture (foot rot, damping-off); assay type: cell-based; details: 200ppm; liquid culture (PDB potato dextrose broth), 24°C; inhibition of growth determined photometrically 3-4 days after application
Description: Thanatephorus cucumeris (Rhizoctonia solani) / liquid culture (foot rot, damping-off): Mycelia fragments of a newly grown liquid culture of the fungus were directly mixed into nutrient broth (PDB potato dextrose broth). After placing a DMSO solution of the test compounds into a 96-well microtiter plate at an application rate of 200ppm, the nutrient broth containing the fungal material was added. The test plates were incubated at 24°C and the inhibition of growth was determined photometrically 3-4 days after application. […] P.01, P.02

[1] = tested on: Blumeria graminis f. sp. tritici; test: Blumeria graminis f. sp. tritici / wheat / leaf disc preventative (Powdery mildew on wheat); assay type: in vivo; details: 200ppm, wheat leaf segments cv. Kanzler, inoculated 1 day after application, percent disease control compared to untreated, 6 - 8 days after application
Description: Blumeria graminis f. sp. tritici (Erysiphe graminis f. sp. tritici) / wheat / leaf disc preventative (Powdery mildew on wheat): Wheat leaf segments cv. Kanzler were placed on agar in a 24-well plate and sprayed with the formulated test compound diluted in water at an application rate of 200ppm. The leaf disks were inoculated by shaking powdery mildew infected plants above the test plates 1 day after application. The inoculated leaf disks were incubated at 20°C and 60% relative humidity under a light regime of 24 h darkness followed by 12h/12h (dark/light) in a climate chamber and the activity of a compound was assessed as percent disease control compared to untreated when an appropriate level of disease damage appears on untreated check leaf segments (6 - 8 days after application). […] P.01, P.02

Pythium ultimum = Pythium ultimum / liquid culture (seedling damping off); assay type: cell-based; details: 200ppm; liquid culture (potato dextrose broth), 24°C; inhibition of growth determined photometrically 2-3 days after application
Description: Pythium ultimum / liquid culture (seedling damping off) Mycelia fragments and oospores of a newly grown liquid culture of the fungus were directly mixed into nutrient broth (potato dextrose broth). After placing a DMSO solution of test compound into a 96-well format microtiter plate at an application rate of 200ppm, the nutrient broth containing the fungal mycelia/spore mixture was added. The test plates were incubated at 24°C and the inhibition of growth was determined photometrically 2-3 days after application. […] P.01, P.02

Pyrenophora teres = Pyrenophora teres / barley / leaf disc preventative (Net blotch); assay type: in vivo; details: 200ppm, barley leaf segments cv Hasso, inoculated two days after application, disease control compared to untreated, 5 - 7 days after application
Description: Pyrenophora teres / barley / leaf disc preventative (Net blotch): Barley leaf segments cv Hasso were placed on agar in a 24-well plate and sprayed with formulated test compound diluted in water at an application rate of 200ppm. The leaf segments were inoculated with a spore suspension of the fungus two days after application of the test solution. The inoculated leaf segments were incubated at 20°C and 65% relative humidity under a light regime of 12/12 h (light/dark) in a climate cabinet and the activity of a compound was assessed as disease control compared to untreated when an appropriate level of disease damage appears in untreated check leaf segments (5 - 7 days after application). […] P.01, P.02

Mycosphaerella arachidis = Mycosphaerella arachidis (Cercospora arachidicola) / liquid culture (early leaf spot); assay type: cell-based; details: 200ppm; liquid culture (PDB potato dextrose broth), 24°C; inhibition of growth determined photometrically 4-5 days after application
Description: (§1) Mycosphaerella arachidis (Cercospora arachidicola) / liquid culture (early leaf spot): Conidia of the fungus from cryogenic storage were directly mixed into nutrient broth (PDB potato dextrose broth). After placing a DMSO solution of test compound into a 96-well microtiter plate at an application rate of 200ppm, the nutrient broth containing the fungal spores was added. The test plates were incubated at 24°C and the inhibition of growth was determined photometrically 4-5 days after application. […] P.01, P.02

[2] = tested on: Mycosphaerella graminicola; test: Mycosphaerella graminicola (Septoria tritici) / liquid culture (Septoria blotch); assay type: cell-based; details: 200ppm; liquid culture (PDB potato dextrose broth), 24°C; inhibition of growth determined photometrically 4-5 days after application
Description: as §1, with “graminicola (Septoria tritici)” for “arachidis (Cercospora arachidicola)”, “(Septoria blotch):” for “(early leaf spot):”

[3] = tested on: Puccinia recondita f. sp. tritici; test: Puccinia recondita f. sp. tritici / wheat / leaf disc preventative (Brown rust); assay type: in vivo; details: 200ppm, wheat leaf segments cv Kanzler, inoculated 1 day after application, percent disease control compared to untreated, 7 - 9 days after application
Description: Puccinia recondita f. sp. tritici l wheat / leaf disc preventative (Brown rust): Wheat leaf segments cultivated variety (cv) Kanzler were placed on agar in 24-well plates and sprayed with formulated test compound diluted in water at an application rate of 200ppm. The leaf disks were inoculated with a spore suspension of the fungus 1 day after application. The inoculated leaf segments were incubated at 19°C and 75% relative humidity under a light regime of 12/12 h (light/dark) in a climate cabinet and the activity of a compound was assessed as percent disease control compared to untreated when an appropriate level of disease damage appears in untreated check leaf segments (7 - 9 days after application). […] P.01, P.02

Glomerella lagenarium = Glomerella lagenarium (Colletotrichum lagenarium) / liquid culture (Anthracnose); assay type: cell-based; details: 200ppm; liquid culture (PDB potato dextrose broth), 24°C; inhibition of growth measured photometrically 3-4 days after application
Description: as §1, with “Glomerella lagenarium (Colletotrichum lagenarium)” for “Mycosphaerella arachidis (Cercospora arachidicola)”, “(Anthracnose) :” for “(early leaf spot):”, “measured” for “determined”, “3-4” for “4-5”

Monographella nivalis = Monographella nivalis (Microdochium nivale) / liquid culture (foot rot cereals); assay type: cell-based; details: 200ppm; liquid culture (PDB potato dextrose broth), 24°C; inhibition of growth determined photometrically 4-5 days after application
Description: as §1, with “Monographella nivalis (Microdochium nivale)” for “Mycosphaerella arachidis (Cercospora arachidicola)”, “(foot rot cereals):” for “(early leaf spot):”

[4] = tested on: Puccinia recondita f. sp. tritici; test: Puccinia recondita f. sp. tritici / wheat / leaf disc curative (Brown rust); assay type: in vivo; details: 200ppm, wheat leaf segments cv Kanzler, applied 1 day after inoculation, percent disease control compared to untreated, 6 - 8 days after application
Description: Puccinia recondita f. sp. tritici / wheat / leaf disc curative (Brown rust): Wheat leaf segments cv Kanzler were placed on agar in 24-well plates. The leaf segments were inoculated with a spore suspension of the fungus. The plates were stored in darkness at 19°C and 75% relative humidity. The formulated test compound diluted in water was applied at an application rate of 200ppm 1 day after inoculation. The leaf segments were incubated at 19°C and 75% relative humidity under a light regime of 12/12 h (light/dark) in a climate cabinet and the activity of a compound was assessed as percent disease control compared to untreated when an appropriate level of disease damage appears in untreated check leaf segments (6 - 8 days after application). […] P.01, P.02

Magnaporthe grisea = assay type: in vivo; details: 200ppm; rice leaf segments cv. Ballila, preventative, inoculated 2 days after application; percent disease control compared to untreated, 5 - 7 days after application
Phaeosphaeria nodorum = Phaeosphaeria nodorum / wheat / leaf disc preventative (Glume blotch); assay type: in vivo; details: 200ppm, wheat leaf segments cv Kanzler, inoculated 2 days after application, percent disease control compared to untreated, 5 - 7 days after application
Description: Phaeosphaeria nodorum (Septorla nodorum) / wheat / leaf disc preventative (Glume blotch): Wheat leaf segments cv Kanzler were placed on agar in a 24-well plate and sprayed with formulated test compound diluted in water at an application rate of 200ppm. The leaf disks were inoculated with a spore suspension of the fungus 2 days after application. The inoculated test leaf disks were incubated at 20°C and 75% relative humidity under a light regime of 12/12 h (light/dark) in a climate cabinet and the activity of a compound was assessed as percent disease control compared to untreated when an appropriate level of disease damage appears in untreated check leaf disks (5 - 7 days after application). […] P.01, P.02

Botryotinia fuckeliana = Botryotinia fuckeliana (Botrytis cinerea) / liquid culture (Gray mould); assay type: cell-based; details: 200ppm; liquid culture (Vogels broth), 24°C; inhibition of growth determined photometrically 3-4 days after application
Description: as §1, with “Botryotinia fuckeliana (Botrytis cinerea)” for “Mycosphaerella arachidis (Cercospora arachidicola)”, “(Gray mould):” for “(early leaf spot):”, “(Vogels” for “(PDB potato dextrose”, “3-4” for “4-5”

CO/N=C1\CCCc2ccc(CCCO/N=C(\C)c3cccc(C)n3)nc21 [P.02]
at least 80%: control of Thanatephorus cucumeris (Thanatephorus cucumeris) | control of Blumeria graminis [1] | control of Pythium ultimum (Pythium ultimum) | control of Pyrenophora teres (Pyrenophora teres) | control of Mycosphaerella arachidis (Mycosphaerella arachidis) | control of Mycosphaerella graminicola [2] | control of Puccinia recondita f. sp. tritici [3] | control of Glomerella lagenarium (Glomerella lagenarium) | control of Monographella nivalis (Monographella nivalis) | control of Puccinia recondita f. sp. tritici [4] | control of Magnaporthe grisea (Magnaporthe grisea) | control of Phaeosphaeria nodorum (Phaeosphaeria nodorum) | control of Botryotinia fuckeliana (Botryotinia fuckeliana)
